These molecules were tested on Aβ1-42 production (assay: Cellular assay for inhibition of Aβ1-42 production (H4 APP751 SWE clone 8.20)). Conditions: 19 h, H4 APP751 SWE clone 8.20 cells, 19 h incubation; read-out: Activity Rating (Aβ42 cellular IC50, given as a number).
Assay type: cell-based
In short: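 Aβ42 level read with antibodies 565, against the Aβ42 neoepitope, and N-terminal 26D6, incubated overnight at 4° C, after exposure of H4 APP751 SWE clone 8.20 cells to compound for 19 h at 37° C. Medium was DMEM plus 0.0125% BSA, 1.5×10^4 cells/well. IC50 values come from curve fitting.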

First: COc1cc(Nc2nc3c(s2)CCCC3(N)c2ccccc2)ccc1-n1cnc(C)n1 (stereo not shown) [Example 82, N2-(3-methoxy-4-(3-methyl-1H-1,2,4-triazol-1-yl)phenyl)-4-phenyl-4,5,6,7-tetrahydrobenzo[d]thiazole-2,4-diamine]
Second: COc1cc(Nc2nc3n(n2)CCCCC3c2ccc(S(C)(=O)=O)cc2)ccc1-n1cnc(C)n1 (stereo not shown) [Example 129, N-(3-methoxy-4-(3-methyl-1H-1,2,4-triazol-1-yl)phenyl)-9-(4-(methylsulfonyl)phenyl)-6,7,8,9-tetrahydro-5H-[1,2,4]-triazolo[1,5-a]azepin-2-amine 2,2,2-trifluoroacetate]
The IC50 of the first is 5.3-fold lower: 0.19 µM for the first, 1 µM for the second.

Going from `COc1cc(Nc2nc3n(n2)CCCCC3c2ccc(F)cc2)cnc1-n1cnc(Cl)c1` (stereo not shown) [Example 86, N-(6-(4-chloro-1H-imidazol-1-yl)-5-methoxypyridin-3-yl)-9-(4-fluorophenyl)-6,7,8,9-tetrahydro-5H-[1,2,4]triazolo[1,5-a]azepin-2-amine] to `COc1cc(Nc2nc3n(n2)CCCCC3(O)c2ccc(F)cc2)ccc1-n1cnc(Cl)c1` (stereo not shown) [Example 92, 2-(4-(4-chloro-1H-imidazol-1-yl)-3-methoxyphenylamino)-9-(4-fluorophenyl)-6,7,8,9-tetrahydro-5H-[1,2,4]triazolo[1,5-a]azepin-9-ol], the IC50 rises from 0.006 µM to 0.011 µM (1.8-fold).

First: COc1cc(Nc2cc3n(n2)C(c2ccc(F)cc2)CCC3)ccc1-n1cnc(Cl)c1 (stereo not shown) [Example 90, N-(4-(4-chloro-1H-imidazol-1-yl)-3-methoxyphenyl)-7-(4-fluorophenyl)-4,5,6,7-tetrahydropyrazolo[1,5-a]pyridin-2-amine]
Second: Cc1nc(C)n(-c2ccc(Nc3nc4n(n3)CCCCC4c3ccc(OCC(F)F)cc3)cc2F)n1 (stereo not shown) [Example 109, 9-(4-(2,2-difluoroethoxy)phenyl)-N-(4-(3,5-dimethyl-1H-1,2,4-triazol-1-yl)-3-fluorophenyl)-6,7,8,9-tetrahydro-5H-[1,2,4]triazolo[1,5-a]azepin-2-amine 2,2,2-trifluoroacetate]
The IC50 of the first is 20-fold lower: 0.012 µM for the first, 0.24 µM for the second.

Same assay, conditions: 19 h, H4 APP751 SWE clone 8.20 cells, 19 h incubation; read-out: Activity Rating (based on Aβ42 cellular IC50 values)

`CNC1Cc2sc(Nc3ccc(-n4cnc(Cl)c4)c(OC)c3)nc2C(c2ccc(F)cc2)C1` (stereo not shown) [Example 79, N2-(4-(4-chloro-1H-imidazol-1-yl)-3-methoxyphenyl)-4-(4-fluorophenyl)-N-6-methyl-4,5,6,7-tetrahydrobenzo[d]thiazole-2,6-diamine] and `COc1cc(Nc2nc3c(s2)CCCCC3c2ccc(F)cc2)ccc1-n1cnc(Cl)c1` (stereo not shown) [Example 85, N-(4-(4-chloro-1H-imidazol-1-yl)-3-methoxyphenyl)-4-(4-fluorophenyl)-5,6,7,8-tetrahydro-4H-cyclohepta[d]thiazol-2-amine 2,2,2-trifluoroacetate] fall in the same range of IC50: 0.01 to 0.1 µM for the first, 0.01 to 0.1 µM for the second.

`COc1cc(Nc2nc3c(s2)CCCC3Cc2ccccc2)ccc1-n1cnc(Cl)c1` (stereo not shown) [Example 80, 4-benzyl-N-(4-(4-chloro-1H-imidazol-1-yl)-3-methoxyphenyl)-4,5,6,7-tetrahydrobenzo[d]thiazol-2-amine 2,2,2-trifluoroacetate] and `COc1cc(Nc2nc3c(s2)CCCC3(NCc2ccc(Cl)cc2)c2ccccc2)ccc1-n1cnc(Cl)c1` (stereo not shown) [Example 83, N2-(4-(4-chloro-1H-imidazol-1-yl)-3-methoxyphenyl)-N4-(4-chlorobenzyl)-4-phenyl-4,5,6,7-tetrahydrobenzo[d]thiazole-2,4-diamine] fall in the same range of IC50: 0.1 to 1 µM for the first, 0.1 to 1 µM for the second.

`COc1cc(Nc2nc3c(s2)CCCC3(O)c2ccccc2)ccc1-n1cnc(C)n1` (stereo not shown) [Example 81, 2-(3-methoxy-4-(3-methyl-1H-1,2,4-triazol-1-yl)phenylamino)-4-phenyl-4,5,6,7-tetrahydrobenzo[d]thiazol-4-ol] and `COc1cc(Nc2nc3n(n2)CCCCC3c2ccc(OC(F)F)cc2)ccc1-n1cnc(C)n1` (stereo not shown) [Example 127, 9-(4-(difluoromethoxy)phenyl)-N-(3-methoxy-4-(3-methyl-1H-1,2,4-triazol-1-yl)phenyl)-6,7,8,9-tetrahydro-5H-[1,2,4]triazolo[1,5-a]azepin-2-amine 2,2,2-trifluoroacetate] fall in the same range of IC50: 0.01 to 0.1 µM for the first, 0.01 to 0.1 µM for the second.

`COc1cc(Nc2nc3c(s2)CC(OC)(OC)CC3c2ccc(F)cc2)ccc1-n1cnc(Cl)c1` (stereo not shown) [Example 84, N-(4-(4-chloro-1H-imidazol-1-yl)-3-methoxyphenyl)-4-(4-fluorophenyl)-6,6-dimethoxy-4,5,6,7-tetrahydrobenzo[d]thiazol-2-amine] and `COc1cc(Nc2nc3n(n2)C(c2ccc(F)cc2)CCC3)ccc1-n1cnc(Cl)c1` (stereo not shown) [Example 89, N-(4-(4-chloro-1H-imidazol-1-yl)-3-methoxyphenyl)-5-(4-fluorophenyl)-5,6,7,8-tetrahydro-[1,2,4]triazolo[1,5-a]pyridin-2-amine 2,2,2-trifluoroacetate] fall in the same range of IC50: 0.01 to 0.1 µM for the first, 0.01 to 0.1 µM for the second.

`Cc1ncnn1-c1ccc(Nc2nc3n(n2)CCCCC3c2ccc(F)cc2)cc1F` (stereo not shown) [Example 93, N-(3-fluoro-4-(5-methyl-1H-1,2,4-triazol-1-yl)phenyl)-9-(4-fluorophenyl)-6,7,8,9-tetrahydro-5H-[1,2,4]triazolo[1,5-a]azepin-2-amine] and `Cc1ncnn1-c1ccc(Nc2nc3n(n2)CCCCC3c2ccc(OC(F)(F)F)cc2)cc1F` (stereo not shown) [Example 99, N-(3-fluoro-4-(5-methyl-1H-1,2,4-triazol-1-yl)phenyl)-9-(4-(trifluoromethoxy)phenyl)-6,7,8,9-tetrahydro-5H-[1,2,4]triazolo[1,5-a]azepin-2-amine] fall in the same range of IC50: 0.01 to 0.1 µM for the first, 0.01 to 0.1 µM for the second.

First: Cc1ncn(-c2ccc(Nc3nc4n(n3)CCCCC4c3ccc(OC(F)(F)F)cc3)cc2F)n1 (stereo not shown) [Example 96, N-(3-fluoro-4-(3-methyl-1H-1,2,4-triazol-1-yl)phenyl)-9-(4-(trifluoromethoxy)phenyl)-6,7,8,9-tetrahydro-5H-[1,2,4]triazolo[1,5-a]azepin-2-amine]
Second: Cc1ncn(-c2ccc(Nc3nc4n(n3)CCCC4c3ccc(OC(F)(F)F)cc3)cc2F)n1 (stereo not shown) [Example 122, N-(3-fluoro-4-(3-methyl-1H-1,2,4-triazol-1-yl)phenyl)-8-(4-(trifluoromethoxy)phenyl)-5,6,7,8-tetrahydro-[1,2,4]triazolo[1,5-a]pyridin-2-amine 2,2,2-trifluoroacetate]
The IC50 of the first is lower: under 0.01 µM for the first, 0.01 to 0.1 µM for the second. The first is the more potent here.

First: COc1cc(Nc2nc3n(n2)CCCCC3c2ccc(OC(C)C)cc2)ccc1-n1cnc(Cl)c1 (stereo not shown) [Example 102, N-(4-(4-chloro-1H-imidazol-1-yl)-3-methoxyphenyl)-9-(4-isopropoxyphenyl)-6,7,8,9-tetrahydro-5H-[1,2,4]triazolo azepin-2-amine]
Second: CCOc1ccc(C2CCCCn3nc(Nc4ccc(-n5cnc(Cl)c5)c(OC)c4)nc32)cc1 (stereo not shown) [Example 131, N-(4-(4-chloro-1H-imidazol-1-yl)-3-methoxyphenyl)-9-(4-ethoxyphenyl)-6,7,8,9-tetrahydro-5H-[1,2,4]triazolo[1,5-a]azepin-2-amine 2,2,2-trifluoroacetate]
The IC50 of the first is lower: under 0.01 µM for the first, 0.01 to 0.1 µM for the second. The first is the more potent here.

`COc1cc(Nc2nc3n(n2)CCCCC3c2ccc(OCC(F)(F)F)cc2)ccc1-n1cnc(Cl)c1` (stereo not shown) [Example 105, N-(4-(4-chloro-1H-imidazol-1-yl)-3-methoxyphenyl)-9-(4-(2,2,2-trifluoroethoxy)phenyl)-6,7,8,9-tetrahydro-5H-[1,2,4]triazolo[1,5-a]azepin-2-amine] and `Cc1ncn(-c2ccc(Nc3nc4n(n3)CCCCC4c3ccc(OCC(F)(F)F)cc3)cc2F)n1` (stereo not shown) [Example 113, N-(3-fluoro-4-(3-methyl-1H-1,2,4-triazol-1-yl)phenyl)-9-(4-(2,2,2-trifluoroethoxy)phenyl)-6,7,8,9-tetrahydro-5H-[1,2,4]triazolo[1,5-a]azepin-2-amine] fall in the same range of IC50: 0.01 to 0.1 µM for the first, 0.01 to 0.1 µM for the second.

`Cc1ncn(-c2c(F)cc(Nc3nc4n(n3)CCCCC4c3ccc(OC(F)(F)F)cc3)cc2F)n1` (stereo not shown) [Example 108, N-(3,5-difluoro-4-(3-methyl-1H-1,2,4-triazol-1-yl)phenyl)-9-(4-(trifluoromethoxy)phenyl)-6,7,8,9-tetrahydro-5H-[1,2,4]triazolo[1,5-a]azepin-2-amine] and `COc1cc(Nc2nc3n(n2)CCCCC3c2ccc(OC(F)(F)F)c(F)c2)ccc1-n1cnc(C)n1` (stereo not shown) [Example 128, 9-(3-fluoro-4-(trifluoromethoxy)phenyl)-N-(3-methoxy-4-(3-methyl-1H-1,2,4-triazol-1-yl)phenyl)-6,7,8,9-tetrahydro-5H-[1,2,4]triazolo[1,5-a]azepin-2-amine 2,2,2-trifluoroacetate] fall in the same range of IC50: 0.01 to 0.1 µM for the first, 0.01 to 0.1 µM for the second.

`Cc1ncnn1-c1ccc(Nc2nc3n(n2)CCCCC3c2ccc(OCC(F)(F)F)cc2)cc1F` (stereo not shown) [Example 110, N-(3-fluoro-4-(5-methyl-1H-1,2,4-triazol-1-yl)phenyl)-9-(4-(2,2,2-trifluoroethoxy)phenyl)-6,7,8,9-tetrahydro-5H-[1,2,4]triazolo[1,5-a]azepin-2-amine] and `Cc1ncnn1-c1ccc(Nc2nc3n(n2)CCCCC3c2ccc(OCC(F)F)cc2)cc1F` (stereo not shown) [Example 119, 9-(4-(2,2-difluoroethoxy)phenyl)-N-(3-fluoro-4-(5-methyl-1H-1,2,4-triazol-1-yl)phenyl)-6,7,8,9-tetrahydro-5H-[1,2,4]triazolo[1,5-a]azepin-2-amine] fall in the same range of IC50: 0.01 to 0.1 µM for the first, 0.01 to 0.1 µM for the second.

`COc1cc(Nc2nc3n(n2)CCCCC3c2ccc(OCC(F)(F)F)cc2)c(F)cc1-n1cnc(C)n1` (stereo not shown) [Example 116, N-(2-fluoro-5-methoxy-4-(3-methyl-1H-1,2,4-triazol-1-yl)phenyl)-9-(4-(2,2,2-trifluoroethoxy)phenyl)-6,7,8,9-tetrahydro-5H-[1,2,4]triazolo[1,5-a]azepin-2-amine] and `COc1cc(Nc2nc3n(n2)CCCCC3c2ccc(S(=O)(=O)C(F)(F)F)cc2)ccc1-n1cnc(C)n1` (stereo not shown) [Example 130, N-(3-methoxy-4-(3-methyl-1H-1,2,4-triazol-1-yl)phenyl)-9-(4-(trifluoromethylsulfonyl)phenyl)-6,7,8,9-tetrahydro-5H-[1,2,4]triazolo[1,5-a]azepin-2-amine 2,2,2-trifluoroacetate] fall in the same range of IC50: 0.01 to 0.1 µM for the first, 0.01 to 0.1 µM for the second.

— patent US8349880B2, “Bicyclic compounds for the reduction of beta-amyloid production” (Bristol-Myers Squibb Company, priority 2009, dated 2013)
